Drawing on US20170107207A1, “AMINOPYRAZOLONE DERIVATIVE” (DAIICHI SANKYO COMPANY, LIMITED, priority 2014, published 2017), this text covers IC50 and GI50 for nine compounds.

The target in test [1] is T1, TIP48/TIP49 complex (Homo sapiens, UniProt Q9Y230+Q9Y265).
T1 construct: made in house; host or cells: E. coli
Kind of test: ATPase assay of TIP48/TIP49 complex (ADP-Glo). The class given is biochemical. As to conditions: concentration at which the ATPase activity was inhibited by 50%. In short, it runs like this:
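Compound was tested over 10 four-fold concentrations, 200 μM down to 0.0007 μM at 2% DMSO, against E. coli-derived human rTIP48/rTIP49 for 1.5 h at room temperature, pH 7.5 with ATP. ATP hydrolysis was read as ADP-Glo luminescence, normalised to complex-only and no-complex wells, then fitted to dose-response curves.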
A general note: In ADP-Glo the light output rises with the ADP produced.

The test system of test [2] is human lymphoma cell line RAMOS cells. Kind of test: Cell growth inhibition test using RAMOS cell, ATP assay (CellTiter-Glo). It counts as cell-based. As to conditions: Homo sapiens, Ramos, 72 h, cultured 3 days, 50% growth inhibition concentration. In short, it runs like this:
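RAMOS cells seeded at 4000 cells/well with compound and cultured 3 days at 37° C, 5% CO2; viability by CellTiter-Glo luminescence. Growth rate T/C % = 100×[(B−C)/(A−C)] using day-0 and final readings; GI50 interpolated from the two concentrations bracketing 50% growth.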
For orientation: Cellular ATP, detected with luciferase, serves as a proxy for viable cell number.

T1 sequence (Q9Y230 whole entry): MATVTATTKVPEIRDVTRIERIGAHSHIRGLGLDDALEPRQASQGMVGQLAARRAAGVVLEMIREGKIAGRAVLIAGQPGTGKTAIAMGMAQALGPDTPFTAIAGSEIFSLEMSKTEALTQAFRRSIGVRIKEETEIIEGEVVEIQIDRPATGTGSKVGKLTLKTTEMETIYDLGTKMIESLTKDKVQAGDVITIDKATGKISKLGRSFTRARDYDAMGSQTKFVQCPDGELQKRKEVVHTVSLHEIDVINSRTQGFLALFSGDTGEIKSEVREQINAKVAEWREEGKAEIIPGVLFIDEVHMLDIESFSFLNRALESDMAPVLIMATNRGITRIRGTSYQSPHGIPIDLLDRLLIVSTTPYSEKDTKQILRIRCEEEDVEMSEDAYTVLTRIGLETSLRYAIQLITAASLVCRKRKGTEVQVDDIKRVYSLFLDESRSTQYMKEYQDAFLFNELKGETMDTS
T1 sequence (Q9Y265 whole entry): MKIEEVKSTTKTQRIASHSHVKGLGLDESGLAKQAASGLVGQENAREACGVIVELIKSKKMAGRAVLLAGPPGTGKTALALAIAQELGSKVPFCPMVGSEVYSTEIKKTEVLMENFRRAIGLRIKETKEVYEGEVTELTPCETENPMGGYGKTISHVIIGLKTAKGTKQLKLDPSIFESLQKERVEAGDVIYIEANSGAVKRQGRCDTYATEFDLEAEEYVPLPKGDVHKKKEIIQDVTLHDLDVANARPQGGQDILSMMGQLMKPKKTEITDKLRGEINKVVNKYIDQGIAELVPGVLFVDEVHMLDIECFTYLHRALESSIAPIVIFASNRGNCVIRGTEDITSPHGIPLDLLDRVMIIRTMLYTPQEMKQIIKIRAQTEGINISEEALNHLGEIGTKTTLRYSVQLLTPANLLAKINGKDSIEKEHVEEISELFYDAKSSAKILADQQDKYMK

A word on the IC50: it is the concentration that inhibits the measured activity by half. Low readings indicate higher potency, high ones lower potency. By GI50 is commonly meant the concentration giving 50% growth inhibition. Read a low GI50 as greater sensitivity of the cells. Regarding `CCc1c(NC(=O)CC(C)(C)CNC(=O)c2cc(Cl)ccc2OCOC)c(=O)n(-c2ccccc2)n1C` [Example 127, 5-Chloro-N-{4-[(5-ethyl-1-methyl-3-oxo-2-phenyl-2,3-dihydro-1H-pyrazol-4-yl)amino]-2,2-dimethyl-4-oxobutyl}-2-(methoxymethoxy)benzamide], the IC50 in test [1] worked out at 55 nM. Besides, the GI50 in test [2] was determined as 130 nM.
Taken in the same sequence, the figures for `CCOc1ncc(Cl)cc1C(=O)NCC(C)(C)CC(=O)Nc1c(C(C)NC)n(C)n(-c2ccccc2)c1=O` (single isomer, unassigned) [Example 85, (+)-/(−)-5-Chloro-N-[2,2-dimethyl-4-({1-methyl-5-[1-(methylamino)ethyl]-3-oxo-2-phenyl-2,3-dihydro-1H-pyrazol-4-yl}amino)-4-oxobutyl]-2-ethoxypyridine-3-carboxamide] were 110 nM and 300 nM.
Taken in the same sequence, the figures for `CNC(C)(C)Cc1c(NC(=O)CC(C)(C)CNC(=O)c2cc(Cl)cc3cc(C)oc23)c(=O)n(-c2ccccc2)n1C` [Example 61, 5-Chloro-N-[2,2-dimethyl-4-({1-methyl-5-[2-methyl-2-(methylamino)propyl]-3-oxo-2-phenyl-2,3-dihydro-1H-pyrazol-4-yl}amino)-4-oxobutyl]-2-methylbenzofuran-7-carboxamide] were 52 nM and 390 nM.
In the same order, the values of `CCOc1ccc(Cl)cc1C(=O)NCC(C)(C)CC(=O)Nc1c(C(C)NC)n(C)n(-c2ccccc2)c1=O` (stereo not drawn) [Example 1, 5-Chloro-N-[2,2-dimethyl-4-({1-methyl-5-[1-(methylamino)ethyl]-3-oxo-2-phenyl-2,3-dihydro-1H-pyrazol-4-yl}amino)-4-oxobutyl]-2-ethoxybenzamide] are 170 nM and 130 nM.
In turn, `CCOc1ncc(Cl)cc1C(=O)NCC(C)(C)CC(=O)Nc1c(CC(C)(C)N(C)C)n(C)n(-c2ccccc2)c1=O` [Example 57, 5-Chloro-N-[4-({5-[2-(dimethylamino)-2-methylpropyl]-1-methyl-3-oxo-2-phenyl-2,3-dihydro-1H-pyrazol-4-yl}amino)-2,2-dimethyl-4-oxobutyl]-2-ethoxypyridine-3-carboxamide] gave an IC50 in test [1] of 70 nM. In test [2], the GI50 came out at 190 nM.
In turn, `[2H]C([2H])([2H])N(CCc1c(NC(=O)CC(C)(C)CNC(=O)c2cc(Cl)ccc2OCC)c(=O)n(-c2ccccc2)n1C)C([2H])([2H])[2H]` [Example 31, N-{4-[(5-{2-[bis(trideuteriomethyl)amino]ethyl}-1-methyl-3-oxo-2-phenyl-2,3-dihydro-1H-pyrazol-4-yl)amino]-2,2-dimethyl-4-oxobutyl}-5-chloro-2-ethoxybenzamide] displayed an IC50 in test [1] of 52 nM. For the same compound, the GI50 in test [2] is 170 nM.
Taken in the same sequence, the figures for `CCOc1cc(F)c(Cl)cc1C(=O)NCC(C)(C)CC(=O)Nc1c(CCN(C)C)n(CC)n(-c2ccccc2)c1=O` [Example 41, 5-Chloro-N-[4-({5-[2-(dimethylamino)ethyl]-1-ethyl-3-oxo-2-phenyl-2,3-dihydro-1H-pyrazol-4-yl}amino)-2,2-dimethyl-4-oxobutyl]-2-ethoxy-4-fluorobenzamide] were 20 nM and 98 nM.
Taken in the same sequence, the figures for `[2H]C([2H])([2H])n1c(CCN(C)C)c(NC(=O)CC(C)(C)CNC(=O)c2cc(Br)cnc2OCC)c(=O)n1-c1ccccc1` [Example 44, 5-Bromo-N-[4-({3-[2-(dimethylamino)ethyl]-5-oxo-1-phenyl-2-(trideuteriomethyl)-2,3-dihydro-1H-pyrazol-4-yl}amino)-2,2-dimethyl-4-oxobutyl]-2-ethoxypyridine-3-carboxamide] were 150 nM and 470 nM.
In the same order, the values of `CCOc1cc(F)c(Cl)cc1C(=O)NCC(C)(C)CC(=O)Nc1c([C@H](C)CN(C)C)n(C)n(-c2ccccc2)c1=O` [Example 70, 5-Chloro-N-[4-({5-[(1R)-2-(dimethylamino)-1-methylethyl]-1-methyl-3-oxo-2-phenyl-2,3-dihydro-1H-pyrazol-4-yl}amino)-2,2-dimethyl-4-oxobutyl]-2-ethoxy-4-fluorobenzamide] are 84 nM and 160 nM.
